Source: patent US9155714B2, “Compositions comprising an aromatic alcohol and a TRPV-1 antagonist, and uses thereof” (JOHNSON & JOHNSON CONSUMER INC., priority 2013, dated 2015)
Where “and” joins values, the source holds several entries; their conditions need not be identical. Equal values may be shown once.

Legend:
Test in all cases: Calcium Flux Test, activity as TRPV-1 agonist
Format in all cases: cell-based
[1] = molecular target: T1, human vanilloid receptor-1 (TRPV-1) (Homo sapiens, UniProt Q8NER1); design: key: **: statistically significant; n/s: not statistically significant
T1 construct: host or cells: HEK293
T1 sequence (Q8NER1 whole entry): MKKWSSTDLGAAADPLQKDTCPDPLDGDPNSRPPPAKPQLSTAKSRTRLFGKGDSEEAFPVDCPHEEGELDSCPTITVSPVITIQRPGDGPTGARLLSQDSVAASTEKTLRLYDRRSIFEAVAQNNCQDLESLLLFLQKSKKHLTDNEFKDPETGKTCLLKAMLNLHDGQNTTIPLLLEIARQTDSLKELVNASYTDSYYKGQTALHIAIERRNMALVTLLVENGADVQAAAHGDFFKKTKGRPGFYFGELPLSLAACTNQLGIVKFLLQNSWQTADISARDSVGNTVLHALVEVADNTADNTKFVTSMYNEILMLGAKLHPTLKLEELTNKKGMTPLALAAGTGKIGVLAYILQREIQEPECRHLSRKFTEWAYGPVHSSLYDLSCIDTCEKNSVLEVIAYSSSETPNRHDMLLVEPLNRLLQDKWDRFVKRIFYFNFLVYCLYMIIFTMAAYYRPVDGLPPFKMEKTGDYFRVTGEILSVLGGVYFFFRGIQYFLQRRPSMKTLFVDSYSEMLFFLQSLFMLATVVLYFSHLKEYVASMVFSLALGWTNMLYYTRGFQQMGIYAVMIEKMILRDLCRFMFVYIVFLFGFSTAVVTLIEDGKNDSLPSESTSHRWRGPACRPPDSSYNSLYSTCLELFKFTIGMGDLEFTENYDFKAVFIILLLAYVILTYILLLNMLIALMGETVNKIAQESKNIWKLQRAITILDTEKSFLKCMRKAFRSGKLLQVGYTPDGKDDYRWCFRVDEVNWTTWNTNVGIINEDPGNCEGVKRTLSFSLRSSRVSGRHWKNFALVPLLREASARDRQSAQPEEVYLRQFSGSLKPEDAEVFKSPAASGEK
Experimental: (§1) The Calcium Flux Test is performed in the following manner: Recombinant HEK293 cells expressing human vanilloid receptor-1 (TRPV-1; accession number AF196175, EMD Millipore, Billerica, Mass.) are grown in D-MEM/F-12 media (Life Technologies, Grand Island, N.Y.) supplemented with 10% fetal bovine serum, 1% non essential amino acids and 400 μg/mL Geneticin (Gibco, Life Technologies). Cells are plated at a concentration of 15,000 cells per well on poly-D-lysine-coated 384 well plates and incubated overnight at 5% CO2 and 37° C. After incubation, culture media is removed from the wells and replaced with 50 μL per well of Fluo-8 No Wash dye solution (#36315, AAT Bioquest, Sunnyvale, Calif.). The Fluo-8 dye solution is prepared by mixing 20 uL of Fluo-8 NW with 30 mL of 0.33× Pluronic® F127 Plus (BASF of Ludwigshafen, Germany) in assay buffer (1×HBSS+2% of HEPES). Fluo-8 dye is incubated for 30 minutes at room temperature. Intracellular calcium (Ca^2+) flux is monitored upon exposure to aromatic alcohol in DMSO vehicle by measuring fluorescence intensity at Ex/Em 490/525 on a Functional Drug Screening System (FDSS; Hamamatsu, […]). Measurements are taken every second for a period of 4 minutes. […] Statistical differences are obtained using One Way ANOVA with Tukey Post-hoc test; statistical significance is defined as P≦0.05.
(§2) Phenoxyethanol was tested at a series of concentrations in DMSO for activity as a TRPV-1 agonist according to the Calcium Flux Test described above. Capsaicin was used as a positive control.
(§3) Maximum RFU values for treatment with phenoxyethanol or capsaisin were compared to the Maximum RFU for a DMSO vehicle alone. Concentrations of phenoxyethanol and capsaicin are reported in milimolar (mM) and nanomolar (nM), respectively.
(§4) Benzyl alcohol and sodium bicarbonate were tested using the Calcium Flux Test.
(§5) Benzyl alcohol and phenethyl alcohol were tested at a series of concentrations in DMSO for activity as a TRPV-1 agonist as described in Example 1. Concentrations of benzyl alcohol and phenethyl alcohol are reported in units of % w/v.

[2] = molecular target: T1, human vanilloid receptor-1 (TRPV-1)
Experimental: as §1, §2, §3, §4, §5

[3] = molecular target: T1, human vanilloid receptor-1 (TRPV-1); design: key: **: Statistically significant; n/s: Not statistically significant
Experimental: as §1, §2, §3, §4, §5

COc1cc(CNC(=O)CCCC/C=C/C(C)C)ccc1O [Capsaicin, capsaicin]
P < 0.05 Compared to Vehicle ([1]; capsaicin 0.0381 nM): n/s | P < 0.05 Compared to Vehicle ([1]; capsaicin 0.1526 nM): n/s | P < 0.05 Compared to Vehicle ([1]; capsaicin 0.6104 nM): ** | P < 0.05 Compared to Vehicle ([1]; capsaicin 2 nM): ** | P < 0.05 Compared to Vehicle ([1]; capsaicin 10 nM): ** | P < 0.05 Compared to Vehicle ([1]; capsaicin 39 nM): ** | P < 0.05 Compared to Vehicle ([1]; capsaicin 156 nM): ** | P < 0.05 Compared to Vehicle ([1]; capsaicin 625 nM): ** | P < 0.05 Compared to Vehicle ([1]; capsaicin 2500 nM): ** | P < 0.05 Compared to Vehicle ([1]; capsaicin 10000 nM): ** | intracellular calcium flux in TRPV-1-transfected HEK cells (result in words) [2]: dose dependent increases | Maximum RFU (mean ± SD) ([2]; capsaicin 0.0381 nM alone): 10.19 ± 2.94 RFU | Maximum RFU (mean ± SD) ([2]; capsaicin 0.1526 nM alone): 29.34 ± 8.18 RFU | Maximum RFU (mean ± SD) ([2]; capsaicin 0.6104 nM alone): 121.32 ± 46.41 RFU | Maximum RFU (mean ± SD) ([2]; capsaicin 2 nM alone): 253.47 ± 24.63 RFU | Maximum RFU (mean ± SD) ([2]; capsaicin 10 nM alone): 348.17 ± 5.56 RFU | Maximum RFU (mean ± SD) ([2]; capsaicin 39 nM alone): 405.53 ± 11.25 RFU | Maximum RFU (mean ± SD) ([2]; capsaicin 100 nM alone (0 antagonist)): 647.05 ± 33.18 RFU and 849.62 ± 7.02 RFU and 1006.91 ± 74.51 RFU | Maximum RFU (mean ± SD) ([2]; capsaicin 156 nM alone): 491.07 ± 21.10 RFU | Maximum RFU (mean ± SD) ([2]; capsaicin 300 nM alone (0 nM antagonist)): 860.95 ± 33.14 RFU and 875.05 ± 55.11 RFU | Maximum RFU (mean ± SD) ([2]; capsaicin 625 nM alone): 604.13 ± 32.46 RFU | Maximum RFU (mean ± SD) ([2]; capsaicin 2500 nM alone): 617.87 ± 34.14 RFU | Maximum RFU (mean ± SD) ([2]; capsaicin 10000 nM alone): 698.83 ± 30.57 RFU

O=C([O-])O.[Na+] [Sodium Bicarbonate, sodium bicarbonate]
P < 0.05 Compared to Vehicle ([3]; sodium bicarbonate 0.03125 mM): n/s | P < 0.05 Compared to Vehicle ([3]; sodium bicarbonate 0.0625 mM): n/s | P < 0.05 Compared to Vehicle ([3]; sodium bicarbonate 0.125 mM): n/s | P < 0.05 Compared to Vehicle ([3]; sodium bicarbonate 0.25 mM): ** | P < 0.05 Compared to Vehicle ([3]; sodium bicarbonate 0.5 mM): n/s | intracellular calcium flux in TRPV-1-transfected HEK cells (result in words) [2]: do not Induce Calcium Flux | Maximum RFU (mean ± SD) ([2]; sodium bicarbonate 0.03125 mM): 109.99 ± 1.37 RFU | Maximum RFU (mean ± SD) ([2]; sodium bicarbonate 0.0625 mM): 102.15 ± 4.19 RFU | Maximum RFU (mean ± SD) ([2]; sodium bicarbonate 0.125 mM): 114.34 ± 6.46 RFU | Maximum RFU (mean ± SD) ([2]; sodium bicarbonate 0.25 mM): 124.90 ± 8.41 RFU | Maximum RFU (mean ± SD) ([2]; sodium bicarbonate 0.5 mM): 3.39 ± 2.66 RFU
